Experimental data: patent publication US12012403B2, “Aryl sulfonyl compounds as CCR6 inhibitors” (CHEMOCENTRYX, INC., priority 2021, dated 2024)
pIC50: −log10 of the molar value.

biological target: T1, human CCR6 (Homo sapiens, UniProt P51684); experiment: Migration (chemotaxis) assay, hCCR6-transfected Ba/F3 cells toward CCL20; format: cell-based; conditions: hCCR6-transfected Ba/F3 cells in human serum; recombinant human CCL20 10 nM; 37° C. 45 minutes; read-out: Potency (IC50 value in the migration assay)
T1 construct: expressed in transfected cells; host or cells: Ba/F3 cells (murine pro-B line), hCCR6-transfected, CMV promoter, sodium butyrate induction
T1 sequence (P51684 1-374): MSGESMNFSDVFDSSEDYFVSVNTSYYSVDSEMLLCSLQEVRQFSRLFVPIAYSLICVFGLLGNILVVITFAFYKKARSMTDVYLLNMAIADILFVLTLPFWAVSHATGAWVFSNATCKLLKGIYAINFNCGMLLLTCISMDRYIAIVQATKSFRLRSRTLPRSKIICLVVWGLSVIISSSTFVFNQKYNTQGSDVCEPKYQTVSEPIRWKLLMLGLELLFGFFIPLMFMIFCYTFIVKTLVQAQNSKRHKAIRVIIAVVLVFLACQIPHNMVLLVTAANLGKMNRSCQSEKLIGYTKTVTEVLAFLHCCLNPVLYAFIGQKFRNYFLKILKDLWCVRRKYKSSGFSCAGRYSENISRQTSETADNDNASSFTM
Excerpt: A chemotaxis assay can be used to determine the efficacy of potential receptor antagonists at blocking the migration mediated through chemokine receptors, such as CCR6. This assay is routinely performed using the ChemoTX® microchamber system with a 5-μm pore-sized polycarbonate membrane. Chemokine receptor-expressing cells are required for such an assay. In this case, Ba/F3 cells (Palacios et al., Nature, 309:126, 1984) transfected with the gene for human CCR6 under control of the CMV promotor were used. To begin such an assay, hCCR6-transfected Ba/F3 cells are first grown for 24 hr in medium supplemented with sodium butyrate, which increases CCR6 transcription via the CMV promotor. The prepared Ba/F3 cells, are collected by centrifugation at 400×g at room temperature, then suspended at 4 million/ml in human serum. The compound being tested is serially diluted from a maximum final concentration of 10 μM (or an equivalent volume of its solvent (DMSO)) and is then added to the cell/serum mixture. Separately, recombinant human CCL20 (MIP-3α/LARC) at its EC50 concentration (10 nM) is placed in the lower wells of the ChemoTX® plate. The 5-μm (pore size) polycarbonate membrane is placed onto the plate, and 20 μL of the cell/compound mixture is transferred onto each well of the membrane. The plates are incubated at 37° C. for 45 minutes, after which the polycarbonate membranes are removed and 5 μl of the DNA-intercalating dye CyQUANT (Invitrogen, Carlsbad, CA) is added to the lower wells. The amount of fluorescence, corresponding to the number of migrated cells, is measured using a Spectrafluor Plus plate reader (TECAN, San Jose, CA).

pIC50, > 8.30:
N#Cc1c[nH]c2ncc(-c3ccc(S(=O)(=O)[C@H]4CC[C@H](Nc5ccc(C(F)(F)F)cn5)CC4)cc3)cc12 [Example 1.071]
Nc1nc2cc(-c3ccc(S(=O)(=O)N4CCC(Nc5ccc(C(F)(F)F)cn5)CC4)cc3)ccc2o1 [Example 1.118]
Cc1c(-c2ccc(S(=O)(=O)N3CCC(Nc4ccc(C(F)(F)F)cn4)CC3)cc2)cnc2[nH]ccc12 [Example 1.023]
O=C1CC2(CCN(c3ccc(S(=O)(=O)N4CCC(Nc5ccc(C(F)(F)F)cn5)CC4)cc3)CC2)CC(=O)N1 [Example 1.152]
O=C1Cc2cc(-c3ccc(S(=O)(=O)N4CCC(Nc5ccc(C(F)(F)F)cn5)CC4)cc3)ccc2N1 [Example 1.076]
O=c1[nH]c2ccc(-c3ccc(S(=O)(=O)N4CCC(Nc5ccc(C(F)(F)F)cn5)CC4)cc3)cc2o1 [Example 1.097]
O=S(=O)(c1ccc(-c2cnc3[nH]ccc3c2)cc1)N1CCC(Nc2ccc(C(F)(F)F)cn2)CC1 [Example 1.089]
CC(=O)NCCn1cc(C#N)c2cc(-c3ccc(S(=O)(=O)N4CCC(Nc5ccc(C(F)(F)F)cn5)CC4)cc3)cnc21 [Example 1.011]
NC(=O)NCC1CCN(c2ccc(S(=O)(=O)N3CCC(Nc4ccc(C(F)(F)F)cn4)CC3)cc2)CC1 [Example 1.146]
O=C1NCCC12CCN(c1ccc(S(=O)(=O)N3CCC(Nc4ccc(C(F)(F)F)cn4)CC3)cc1)CC2 [Example 1.172]

pIC50, 5.00 to 7.00:
O=C1Cc2cc(-c3ccc(S(=O)(=O)N4CCC(Nc5ccc(C(F)(F)F)cn5)CC4)cc3)cc(C(=O)O)c2N1 [Example 1.008]
CC(=O)N1CCCN(c2ccc(S(=O)(=O)N3CCC(Nc4ccc(C(F)(F)F)cn4)CC3)cc2)CC1 [Example 1.201]
O=S(=O)(c1ccc(N2CCC(c3nnn[nH]3)CC2)cc1)N1CCC(Nc2ccc(C(F)(F)F)cn2)CC1 [Example 1.128]
NC(=O)NC1CC2(C1)CN(c1ccc(S(=O)(=O)N3CCC(Nc4ccc(C(F)(F)F)cn4)CC3)cc1)C2 [Example 1.159]
CC(C)(C)OC(=O)N[C@H]1CCN(c2ccc(S(=O)(=O)N3CCC(Nc4ccc(C(F)(F)F)cn4)CC3)cc2)C1 [Example 1.218]
O=S(=O)(c1ccc(N2CCN(c3nnc[nH]3)CC2)cc1)N1CCC(Nc2ccc(C(F)(F)F)cn2)CC1 [Example 1.174]
N#CC1CCN(c2ccc(S(=O)(=O)N3CCC(Nc4ccc(C(F)(F)F)cn4)CC3)cc2)CC1 [Example 1.171]
Cc1cc(S(=O)(=O)N2CCC(Nc3ccc(C(F)(F)F)cn3)CC2)ccc1-c1ccc2c(c1)CC(=O)N2 [Example 1.018]
CS(=O)(=O)N1CCCN(c2ccc(S(=O)(=O)N3CCC(Nc4ccc(C(F)(F)F)cn4)CC3)cc2)CC1 [Example 1.199]
CC(C)(C)OC(=O)N[C@@H]1CCCN(c2ccc(S(=O)(=O)N3CCC(Nc4ccc(C(F)(F)F)cn4)CC3)cc2)C1 [Example 1.213]

pIC50, 7.00 to 8.30:
NC(=O)C1(C2CCN(c3ccc(S(=O)(=O)N4CCC(Nc5ccc(C(F)(F)F)cn5)CC4)cc3)CC2)CC1 [Example 1.124]
NC(=O)C1(O)CCN(c2ccc(S(=O)(=O)N3CCC(Nc4ccc(C(F)(F)F)cn4)CC3)cc2)CC1 [Example 1.166]
N#Cc1cc2cc(-c3ccc(S(=O)(=O)N4CCC(Nc5ccc(C(F)(F)F)cn5)CC4)cc3)ccc2[nH]1 [Example 1.113]
O=C1Cc2ccc(-c3ccc(S(=O)(=O)N4CCC(Nc5ccc(C(F)(F)F)cn5)CC4)cc3)cc2N1 [Example 1.084]
NC(=O)c1cc2cc(-c3ccc(S(=O)(=O)N4CCC(Nc5ccc(C(F)(F)F)cn5)CC4)cc3)ccc2[nH]1 [Example 1.098]
CNC(=O)CC1CCN(c2ccc(S(=O)(=O)N3CCC(Nc4ccc(C(F)(F)F)cn4)CC3)cc2)CC1 [Example 1.135]
CC1(C)Oc2ccc(-c3ccc(S(=O)(=O)N4CCC(Nc5ccc(C(F)(F)F)cn5)CC4)cc3)cc2NC1=O [Example 1.031]
CC(=O)NC1CC2(C1)CN(c1ccc(S(=O)(=O)N3CCC(Nc4ccc(C(F)(F)F)cn4)CC3)cc1)C2 [Example 1.163]
NC(=O)C1CN(c2ccc(S(=O)(=O)N3CCC(Nc4ccc(C(F)(F)F)cn4)CC3)cc2)CCO1 (stereo not shown) [Example 1.202]
O=S(=O)(c1ccc(N2CCC(Nc3ccccc3)CC2)cc1)N1CCC(Nc2ccc(C(F)(F)F)cn2)CC1 [Example 1.220]
O=S(=O)(c1ccc(N2CCCCC2)cc1)N1CCC(Nc2ccc(C(F)(F)F)cn2)CC1 [Example 1.235]
NC(=O)N1CCN(c2ccc(S(=O)(=O)N3CCC(Nc4ccc(C(F)(F)F)cn4)CC3)cc2)CC1 [Example 1.204]
CC(=O)N1CCC2(CC1)C(=O)Nc1ccc(-c3ccc(S(=O)(=O)N4CCC(Nc5ccc(C(F)(F)F)cn5)CC4)cc3)cc12 [Example 1.026]
CC(=O)NC1CCN(c2ccc(S(=O)(=O)N3CCC(Nc4ccc(C(F)(F)F)cn4)CC3)cc2)CC1 [Example 1.210]
CN(C)c1n[nH]c2ccc(-c3ccc(S(=O)(=O)N4CCC(Nc5ccc(C(F)(F)F)cn5)CC4)cc3)cc12 [Example 1.069]
O=C1CCc2cc(-c3ccc(S(=O)(=O)N4CCC(Nc5ccc(C(F)(F)F)cn5)CC4)cc3)ccc2N1 [Example 1.078]
O=S(=O)(c1ccc(N2CCc3[nH]ncc3C2)cc1)N1CCC(Nc2ccc(C(F)(F)F)cn2)CC1 [Example 1.214]
N#Cc1c[nH]c2cc(-c3ccc(S(=O)(=O)N4CCC(Nc5ccc(C(F)(F)F)cn5)CC4)cc3)ccc12 [Example 1.101]
NC(=O)CN1Cc2ccc(-c3ccc(S(=O)(=O)N4CCC(Nc5ccc(C(F)(F)F)cn5)CC4)cc3)cc2C1=O [Example 1.040]
O=c1[nH]c(=O)c2ccc(-c3ccc(S(=O)(=O)N4CCC(Nc5ccc(C(F)(F)F)cn5)CC4)cc3)cc2[nH]1 [Example 1.057]
Nc1nc2cc(-c3ccc(S(=O)(=O)N4CCC(Nc5ccc(C(F)(F)F)cn5)CC4)cc3)ccc2[nH]1 [Example 1.107]
NC(=O)N1CCC2(CC1)C(=O)Nc1ccc(-c3ccc(S(=O)(=O)N4CCC(Nc5ccc(C(F)(F)F)cn5)CC4)cc3)cc12 [Example 1.025]
O=C1COc2cc(-c3ccc(S(=O)(=O)N4CCC(Nc5ccc(C(F)(F)F)cn5)CC4)cc3)ccc2N1 [Example 1.074]
O=S(=O)(c1ccc(N2CC[C@H](O)[C@@H](CO)C2)cc1)N1CCC(Nc2ccc(C(F)(F)F)cn2)CC1 [Example 1.181]
CN(C)CCn1cc(C#N)c2cc(-c3ccc(S(=O)(=O)N4CCC(Nc5ccc(C(F)(F)F)cn5)CC4)cc3)cnc21 [Example 1.001]
O=S(=O)(c1ccc(-c2ccc3c(c2)C2(CCOCC2)CN3)cc1)N1CCC(Nc2ccc(C(F)(F)F)cn2)CC1 [Example 1.034]
CS(=O)(=O)N1CCN(c2ccc(S(=O)(=O)N3CCC(Nc4ccc(C(F)(F)F)cn4)CC3)cc2)CC1 [Example 1.200]
CC(C)(O)OC(=O)N1CCC2(CC1)C(=O)Nc1ccc(-c3ccc(S(=O)(=O)N4CCC(Nc5ccc(C(F)(F)F)cn5)CC4)cc3)cc12 [Example 1.044]
O=S(=O)(c1ccc(N2CCC(O)(CO)CC2)cc1)N1CCC(Nc2ccc(C(F)(F)F)cn2)CC1 [Example 1.168]
NC(=O)CC1CCN(c2ccc(S(=O)(=O)N3CCC(Nc4ccc(C(F)(F)F)cn4)CC3)cc2)CC1 [Example 1.167]
CC(C)(C(N)=O)C1CCN(c2ccc(S(=O)(=O)N3CCC(Nc4ccc(C(F)(F)F)cn4)CC3)cc2)CC1 [Example 1.123]
NC(=O)C1CC2(C1)CN(c1ccc(S(=O)(=O)N3CCC(Nc4ccc(C(F)(F)F)cn4)CC3)cc1)C2 [Example 1.121]
O=C1NCC2(CCN(c3ccc(S(=O)(=O)N4CCC(Nc5ccc(C(F)(F)F)cn5)CC4)cc3)CC2)N1 [Example 1.150]
O=C1NCCc2nc(-c3ccc(S(=O)(=O)N4CCC(Nc5ccc(C(F)(F)F)cn5)CC4)cc3)sc21 [Example 1.048]
CC(=O)NCCC1CCN(c2ccc(S(=O)(=O)N3CCC(Nc4ccc(C(F)(F)F)cn4)CC3)cc2)CC1 [Example 1.126]
